Assay results published in patent publication US4786635A, “Novel benzothiazine derivatives” (Santen Pharmaceutical Co., Ltd., priority 1985, dated 1988).
Where a name gives a salt, the structure may show the parent alone.

System: Isolated guinea-pig taenia coli
Assay: calcium-antagonistic activity: inhibition of CaCl2-induced contraction of isolated guinea-pig taenia coli
Type: cell-based
Settings: Cavia porcellus, Ca^++ -free Krebs solution, 32° C., test compound 5 minutes before CaCl2 (3×10^-4 M), isotonic recording, read-out: IC50 (concentration of the test compound which elicited 50% inhibition of Ca^++ -induced contraction)
Experimental: (Method for mesurement of calcium-antagonistic activity) Isolated guinea-pig taenia coli was suspended in a 20 ml organ bath filled with Krebs solution at32° C. and bubbled with 5% carbon dioxide in oxygen. After equilibration, the muscle was suspended in Ca^++ -free Krebs solution. The muscle was then exposed to the test compound for 5 minutes before the addition of CaCl2, and the contraction induced by CaCl2 (3×10^-4 M) was recorded isotonically. The calcium-antagonistic activity was represented by the concentration of the test compound which elicited 50% inhibition (IC50) of Ca^++ -induced contraction.

| SMILES | IC50 |
| --- | --- |
| COc1ccc(OCCCCN(C)CCOc2ccc(OC)c(OC)c2)c(C2Sc3ccccc3N(C)C2=O)c1 (stereo not shown) [Compound C, 3,4-dihydro-2-[5-methoxy-2-[4-[N-methyl-N-[2-[(3,4-dimethoxy)phenoxy]ethyl]amino]butoxy]phenyl]-4-methyl-3-oxo-2H-1,4-benzothiazine oxalate] | 290 nM |
| COc1ccc(OCCCN(C)CCOc2ccc3c(c2)OCO3)c(C2Sc3ccccc3N(C)C2=O)c1 (stereo not shown) [Compound B, 3,4-dihydro-2-[5-methoxy-2-[3-[N-methyl-N-[2-[(3,4-methylenedioxy)phenoxy]ethyl]amino]propoxy]phenyl]-4-methyl-3-oxo-2H-1,4-benzothiazine fumarate] | 240 nM |
| COc1ccc(OCCCCN(C)CCOc2ccc3c(c2)OCO3)c(C2Sc3ccccc3N(C)C2=O)c1 (stereo not shown) [Compound A, 3,4-dihydro-2-[5-methoxy-2-[4-[N-methyl-N-[2-[(3,4-methylenedioxy)phenoxy]ethyl]amino]butoxy]phenyl]-4-methyl-3-oxo-2H-1,4-benzothiazine oxalate] | 320 nM |
| COc1ccc(OCCCCN(C)CCc2ccc(OC)c(OC)c2)c(C2Sc3ccccc3N(C)C2=O)c1 (stereo not shown) [Reference Compound, 3,4-dihydro-2-[5-methoxy-2-[4-[N-methyl-(3,4-dimethoxy)phenetylamino]butoxy]phenyl]-4-methyl-3-oxo-2H-1,4-benzothiazine oxalate, reference compound] | 3200 nM |
